Source: ChEMBL document CHEMBL5584275, “Design, Synthesis, and Evaluation of a New Chemotype Fluorescent Ligand for the P2Y2 Receptor” (ACS Med Chem Lett, 2024)

Key:
[1] = target: T1, P2Y purinoceptor 2 (Homo sapiens, UniProt P41231)
Description: Binding affinity to NanoLuc-fused P2Y2R (unknown origin) extracted from 1321N1 cell membrane incubated for 1 hr by NanoBRET assay

[2] = target: T1, P2Y purinoceptor 2; experiment: Displacement of 2-((5-(7-chloro-2-((3-((2-(5-(3-(5,5-difluoro-7,9-dimethyl-5H-4lambda4,5lambda4-dipyrrolo[1,2-c:2',1'-f][1,3,2]diazaborinin-3-yl)propanamido)pentanamido)ethyl)amino)-3-oxopropyl)amino)-4H-benzo[5,6]cyclohepta[1,2-d]thiazol-4-yl)-2-oxo-4-thioxo-3,4-dihydropyrimidin-1(2H)-yl)methyl)-N-(1H-tetrazol-5-yl)thiazole-4-carboxamide from NLuc fused P2Y2R (unknown origin) extracted from 1321N1 cell membrane incubated for 1 hr by NanoBRET assay
[3] = target: T1, P2Y purinoceptor 2; remark: listed apart in the source
Description: Displacement of (E)-N6-(5-(bis(4-chlorophenyl)methyl)thiazol-2-yl)-N2-(6-(2-(4-(2-(5,5-difluoro-7-(thiophen-2-yl)-5H-4lambda4,5lambda4-dipyrrolo[1,2-c:2',1'-f][1,3,2]diazaborinin-3-yl)vinyl)phenoxy)acetamido)hexanoyl)-L-lysine from NLuc fused P2Y2R (unknown origin) extracted from 1321N1 cell membrane incubated for 1 hr by NanoBRET assay

T1 sequence (P41231 whole entry, the tested form may be a part): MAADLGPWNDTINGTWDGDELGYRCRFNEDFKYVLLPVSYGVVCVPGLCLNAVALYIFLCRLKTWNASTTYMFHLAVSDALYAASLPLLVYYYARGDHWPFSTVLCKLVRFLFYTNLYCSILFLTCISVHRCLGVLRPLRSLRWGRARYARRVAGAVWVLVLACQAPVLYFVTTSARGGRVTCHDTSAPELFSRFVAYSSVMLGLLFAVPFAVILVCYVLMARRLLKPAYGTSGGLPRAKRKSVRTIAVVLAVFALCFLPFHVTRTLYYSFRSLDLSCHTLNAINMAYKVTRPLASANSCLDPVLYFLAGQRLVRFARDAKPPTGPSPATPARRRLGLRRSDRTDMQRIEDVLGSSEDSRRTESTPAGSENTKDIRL

| Compound | Kd [1] [µM] | Ki [2] [µM] | Ki [3] [µM] |
| --- | --- | --- | --- |
| CCOCCNc1ncc(C(c2ccc(Cl)cc2)c2ccc(Cl)cc2)s1 |  | ~1000 |  |
| CCOCCNc1nc2c(s1)C=Cc1cc(Cl)ccc1[C@@H]2c1cn(C)c(=O)[nH]c1=S (racemic) |  |  | 9.12 |

Continued, values first:

| Kd [1] [µM] | Ki [2] [µM] | Ki [3] [µM] | Compound |
| --- | --- | --- | --- |
| 4.17 |  |  | CN(C)c1ccc2c(-c3ccc(C(=O)N[C@@H](CCCNc4ncc(C(c5ccc(Cl)cc5)c5ccc(Cl)cc5)s4)C(=O)O)cc3C(=O)[O-])c3ccc(=[N+](C)C)cc-3oc2c1 |
| 2.29 |  |  | O=C(COc1ccc(/C=C/C2=[N+]3C(=Cc4ccc(-c5cccs5)n4[B-]3(F)F)C=C2)cc1)NCCCCCC(=O)N[C@@H](CCNc1ncc(C(c2ccc(Cl)cc2)c2ccc(Cl)cc2)s1)C(=O)O |
| 0.955 | 3.31 |  | O=C(COc1ccc(/C=C/C2=[N+]3C(=Cc4ccc(-c5cccs5)n4[B-]3(F)F)C=C2)cc1)NCCCCCC(=O)N[C@@H](CCCNc1ncc(C(c2ccc(Cl)cc2)c2ccc(Cl)cc2)s1)C(=O)O |
